# Source: PubChem BioAssay (NCI)
#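 Briefly, cells in 96-well plates were exposed to five compound concentrations for 48 h, and endpoints were estimated by linear interpolation. At the TGI there is no net growth.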
# What was measured:
# Experiment in all cases: inhibition of tumour cell growth, NCI panel, 48 h
# OVCAR-5 ovarian = tested on: OVCAR-5 ovarian
# HL-60(TB) leukemia = tested on: HL-60(TB) leukemia
# BT-549 breast = tested on: BT-549 breast
# MOLT-4 leukemia = tested on: MOLT-4 leukemia
# ACHN renal = tested on: ACHN renal
# U251 CNS = tested on: U251 CNS
# NCI-H226 lung = tested on: NCI-H226 lung
# KM12 colon = tested on: KM12 colon
# K-562 leukemia = tested on: K-562 leukemia
# MCF7 breast = tested on: MCF7 breast
# SF-295 CNS = tested on: SF-295 CNS
# MDA-MB-435 = tested on: MDA-MB-435
# EKVX NSCLC = tested on: EKVX NSCLC
# SK-MEL-5 melanoma = tested on: SK-MEL-5 melanoma
# SK-MEL-2 melanoma = tested on: SK-MEL-2 melanoma
# OVCAR-3 ovarian = tested on: OVCAR-3 ovarian
# HCC-2998 colon = tested on: HCC-2998 colon
# DU-145 prostate = tested on: DU-145 prostate
# HOP-62 NSCLC = tested on: HOP-62 NSCLC
# CCRF-CEM leukemia = tested on: CCRF-CEM leukemia
# CAKI-1 renal = tested on: CAKI-1 renal
# NCI/ADR-RES ovarian = tested on: NCI/ADR-RES ovarian
# HS 578T breast = tested on: HS 578T breast
# COLO 205 colon = tested on: COLO 205 colon
# HT29 colon = tested on: HT29 colon
# UACC-257 melanoma = tested on: UACC-257 melanoma
# HCT-15 colon = tested on: HCT-15 colon
# NCI-H522 lung = tested on: NCI-H522 lung
# UO-31 renal = tested on: UO-31 renal
# UACC-62 melanoma = tested on: UACC-62 melanoma
# IGROV1 ovarian = tested on: IGROV1 ovarian
# SF-268 CNS = tested on: SF-268 CNS
# MDA-MB-231 breast = tested on: MDA-MB-231 breast
# M14 melanoma = tested on: M14 melanoma
# TK-10 renal = tested on: TK-10 renal
# SNB-19 CNS = tested on: SNB-19 CNS
# SR leukemia = tested on: SR leukemia
# OVCAR-4 ovarian = tested on: OVCAR-4 ovarian
# 786-0 renal = tested on: 786-0 renal
# SK-OV-3 ovarian = tested on: SK-OV-3 ovarian
# NCI-H460 lung = tested on: NCI-H460 lung
# SN12C renal = tested on: SN12C renal
# RPMI-8226 leukemia = tested on: RPMI-8226 leukemia
# HCT-116 colon = tested on: HCT-116 colon
# HOP-92 NSCLC = tested on: HOP-92 NSCLC
# SK-MEL-28 melanoma = tested on: SK-MEL-28 melanoma
# T-47D breast = tested on: T-47D breast
# A498 renal = tested on: A498 renal
# SW-620 colon = tested on: SW-620 colon
# RXF 393 renal = tested on: RXF 393 renal
# SF-539 CNS = tested on: SF-539 CNS
# MDA-N = tested on: MDA-N
# LOX IMVI melanoma = tested on: LOX IMVI melanoma
# PC-3 prostate = tested on: PC-3 prostate
# SNB-75 CNS = tested on: SNB-75 CNS
# NCI-H23 lung = tested on: NCI-H23 lung
# A549 NSCLC = tested on: A549 NSCLC
# OVCAR-8 ovarian = tested on: OVCAR-8 ovarian
compound,measurement,setting,value
O=C1C=CC(O)(C#CCO)C=C1,TGI,OVCAR-5 ovarian,26.9 µM
same,TGI,HL-60(TB) leukemia,15.8 µM
same,TGI,BT-549 breast,26.7 µM
same,TGI,MOLT-4 leukemia,> 100 µM
same,TGI,ACHN renal,26.6 µM
same,TGI,U251 CNS,23.8 µM
same,TGI,NCI-H226 lung,28.1 µM
same,TGI,KM12 colon,32.6 µM
same,TGI,K-562 leukemia,> 100 µM
same,TGI,MCF7 breast,18.5 µM
same,TGI,SF-295 CNS,> 100 µM
same,TGI,MDA-MB-435,26.9 µM
same,TGI,EKVX NSCLC,40.3 µM
same,TGI,SK-MEL-5 melanoma,> 100 µM
same,TGI,SK-MEL-2 melanoma,33.2 µM
same,TGI,OVCAR-3 ovarian,31 µM
same,TGI,HCC-2998 colon,31.3 µM
same,TGI,DU-145 prostate,31.6 µM
same,TGI,HOP-62 NSCLC,71.7 µM
same,TGI,CCRF-CEM leukemia,62.2 µM
same,TGI,CAKI-1 renal,10.8 µM
same,TGI,NCI/ADR-RES ovarian,30.3 µM
same,TGI,HS 578T breast,> 76.5 µM
same,TGI,COLO 205 colon,> 50.2 µM
same,TGI,HT29 colon,29.7 µM
same,TGI,UACC-257 melanoma,27.7 µM
same,TGI,HCT-15 colon,10.1 µM
same,TGI,NCI-H522 lung,4.16 µM
same,TGI,UO-31 renal,32.3 µM
same,TGI,UACC-62 melanoma,29.3 µM
same,TGI,IGROV1 ovarian,25.6 µM
same,TGI,SF-268 CNS,34.1 µM
same,TGI,MDA-MB-231 breast,33.7 µM
same,TGI,M14 melanoma,44 µM
same,TGI,TK-10 renal,25.8 µM
same,TGI,SNB-19 CNS,> 56.8 µM
same,TGI,SR leukemia,> 100 µM
same,TGI,OVCAR-4 ovarian,25.9 µM
same,TGI,786-0 renal,> 42 µM
same,TGI,SK-OV-3 ovarian,> 100 µM
same,TGI,NCI-H460 lung,48.8 µM
same,TGI,SN12C renal,30.6 µM
same,TGI,RPMI-8226 leukemia,22 µM
same,TGI,HCT-116 colon,> 53.9 µM
same,TGI,HOP-92 NSCLC,5.8 µM
same,TGI,SK-MEL-28 melanoma,25.5 µM
same,TGI,T-47D breast,41.6 µM
same,TGI,A498 renal,46 µM
same,TGI,SW-620 colon,15.3 µM
same,TGI,RXF 393 renal,10.8 µM
same,TGI,SF-539 CNS,30.8 µM
same,TGI,MDA-N,23 µM
same,TGI,LOX IMVI melanoma,23.3 µM
same,TGI,PC-3 prostate,31.8 µM
same,TGI,SNB-75 CNS,37.4 µM
same,TGI,NCI-H23 lung,34.5 µM
same,TGI,A549 NSCLC,> 60.2 µM
same,TGI,OVCAR-8 ovarian,39.7 µM
Cn1c(=O)c2c(nc3n(Cc4ccccc4)c(=O)c(Br)cn23)n(C)c1=O,TGI,OVCAR-5 ovarian,> 100 µM
same,TGI,HL-60(TB) leukemia,> 100 µM
same,TGI,BT-549 breast,> 100 µM
same,TGI,MOLT-4 leukemia,> 100 µM
same,TGI,ACHN renal,> 100 µM
same,TGI,U251 CNS,> 100 µM
same,TGI,NCI-H226 lung,> 100 µM
same,TGI,KM12 colon,> 100 µM
same,TGI,K-562 leukemia,> 100 µM
same,TGI,MCF7 breast,> 100 µM
same,TGI,SF-295 CNS,> 100 µM
same,TGI,MDA-MB-435,> 100 µM
same,TGI,EKVX NSCLC,> 100 µM
same,TGI,SK-MEL-5 melanoma,> 100 µM
same,TGI,SK-MEL-2 melanoma,> 100 µM
same,TGI,OVCAR-3 ovarian,> 100 µM
same,TGI,HCC-2998 colon,> 100 µM
same,TGI,DU-145 prostate,> 100 µM
same,TGI,HOP-62 NSCLC,> 100 µM
same,TGI,CCRF-CEM leukemia,> 100 µM
same,TGI,CAKI-1 renal,> 100 µM
same,TGI,NCI/ADR-RES ovarian,> 100 µM
same,TGI,HS 578T breast,> 100 µM
same,TGI,COLO 205 colon,> 100 µM
same,TGI,HT29 colon,> 100 µM
same,TGI,UACC-257 melanoma,> 100 µM
same,TGI,HCT-15 colon,> 100 µM
same,TGI,NCI-H522 lung,> 100 µM
same,TGI,UO-31 renal,> 100 µM
same,TGI,UACC-62 melanoma,> 100 µM
same,TGI,IGROV1 ovarian,> 100 µM
same,TGI,SF-268 CNS,> 100 µM
same,TGI,MDA-MB-231 breast,> 100 µM
same,TGI,M14 melanoma,> 100 µM
same,TGI,TK-10 renal,> 100 µM
same,TGI,SNB-19 CNS,> 100 µM
same,TGI,SR leukemia,> 100 µM
same,TGI,OVCAR-4 ovarian,> 100 µM
same,TGI,786-0 renal,> 100 µM
same,TGI,NCI-H460 lung,> 100 µM
same,TGI,SN12C renal,> 100 µM
same,TGI,RPMI-8226 leukemia,> 100 µM
same,TGI,HCT-116 colon,> 100 µM
same,TGI,HOP-92 NSCLC,> 100 µM
same,TGI,SK-MEL-28 melanoma,> 100 µM
same,TGI,T-47D breast,> 100 µM
same,TGI,A498 renal,> 100 µM
same,TGI,SW-620 colon,> 100 µM
same,TGI,RXF 393 renal,> 100 µM
same,TGI,SF-539 CNS,> 100 µM
same,TGI,MDA-N,> 100 µM
same,TGI,LOX IMVI melanoma,> 100 µM
same,TGI,PC-3 prostate,> 100 µM
same,TGI,SNB-75 CNS,> 100 µM
same,TGI,NCI-H23 lung,> 100 µM
same,TGI,A549 NSCLC,> 100 µM
same,TGI,OVCAR-8 ovarian,> 100 µM
C/C=C(/C)C(=O)O[C@H]1CCN2CC=C(COC(=O)[C@@](O)([C@H](C)OC)C(C)(C)O)[C@H]12,TGI,OVCAR-5 ovarian,> 100 µM
same,TGI,HL-60(TB) leukemia,> 100 µM
same,TGI,BT-549 breast,> 100 µM
same,TGI,MOLT-4 leukemia,> 100 µM
same,TGI,ACHN renal,> 100 µM
same,TGI,U251 CNS,> 100 µM
same,TGI,NCI-H226 lung,> 100 µM
same,TGI,KM12 colon,> 100 µM
same,TGI,K-562 leukemia,> 100 µM
same,TGI,MCF7 breast,> 100 µM
same,TGI,SF-295 CNS,> 100 µM
same,TGI,MDA-MB-435,> 100 µM
same,TGI,EKVX NSCLC,> 100 µM
same,TGI,SK-MEL-5 melanoma,> 100 µM
same,TGI,SK-MEL-2 melanoma,> 100 µM
same,TGI,OVCAR-3 ovarian,> 100 µM
same,TGI,HCC-2998 colon,> 100 µM
same,TGI,DU-145 prostate,> 100 µM
same,TGI,HOP-62 NSCLC,> 100 µM
same,TGI,CCRF-CEM leukemia,> 100 µM
same,TGI,CAKI-1 renal,> 100 µM
same,TGI,NCI/ADR-RES ovarian,> 100 µM
same,TGI,HS 578T breast,> 100 µM
same,TGI,COLO 205 colon,> 100 µM
same,TGI,HT29 colon,> 100 µM
same,TGI,UACC-257 melanoma,> 100 µM
same,TGI,HCT-15 colon,> 100 µM
same,TGI,NCI-H522 lung,> 100 µM
same,TGI,UO-31 renal,> 100 µM
same,TGI,UACC-62 melanoma,> 100 µM
same,TGI,IGROV1 ovarian,> 100 µM
same,TGI,SF-268 CNS,> 100 µM
same,TGI,MDA-MB-231 breast,> 100 µM
same,TGI,M14 melanoma,> 100 µM
same,TGI,TK-10 renal,> 100 µM
same,TGI,SNB-19 CNS,> 100 µM
same,TGI,SR leukemia,> 100 µM
same,TGI,OVCAR-4 ovarian,> 100 µM
same,TGI,786-0 renal,> 100 µM
same,TGI,SK-OV-3 ovarian,> 100 µM
same,TGI,SN12C renal,> 100 µM
same,TGI,RPMI-8226 leukemia,> 100 µM
same,TGI,HCT-116 colon,> 100 µM
same,TGI,HOP-92 NSCLC,> 100 µM
same,TGI,SK-MEL-28 melanoma,> 100 µM
same,TGI,T-47D breast,> 100 µM
same,TGI,A498 renal,> 100 µM
same,TGI,SW-620 colon,> 100 µM
same,TGI,SF-539 CNS,> 100 µM
same,TGI,MDA-N,> 100 µM
same,TGI,LOX IMVI melanoma,> 100 µM
same,TGI,PC-3 prostate,> 100 µM
same,TGI,SNB-75 CNS,> 100 µM
same,TGI,NCI-H23 lung,> 100 µM
same,TGI,A549 NSCLC,> 100 µM
same,TGI,OVCAR-8 ovarian,> 100 µM
